Source: patent US6638919B2, “Antiviral purine derivatives” (University College Cardiff Consultants Limited, priority 2001, dated 2003)
pEC50: −log10 of the molar value. Structures can show the parent of a compound that is named as a salt. Where two headings read alike, the source gives them in different places.

Key:
[1] = Solution stability of salt forms; assay type: physicochemical; conditions: % of parent (AUC) after 27 hr at room temperature
From the text: (§1) The solubility and solution/solid state stability of three salt forms of (1S, 4R)-4-[2-amino-5(cyclopropylamino)-9(H)-purin-9-yl]-2-cyclopentene-1-methanol O-(phenyl ethoxy-L-alaninyl) phosphate

[2] = Solid state stability of salt forms; assay type: physicochemical; conditions: % of parent (AUC) after two weeks at 60° C.
From the text: as §1

[3] = Solid type of salt forms; assay type: physicochemical
[4] = test system: HIV-1; assay: Inhibition of HIV-1 giant cell formation in CEM cells; assay type: cell-based; conditions: for pEC50: read-out: HIV1 CBM; for EC50: 96 h, CEM cells, giant cell formation after 4 days, Tables I and II, read-out: EC50/μM HIV-1 CEM
Protocol: (§2) Then 100 μL of the infected cell suspension was transferred to microtiter plate wells and mixed with 100 μL of the appropriate dilutions of the test compounds.
HIV 1 CEM: EC50 in μM for inhibition of HIV1 in CEM cells

[5] = test system: HIV-2; assay: Inhibition of HIV-2 giant cell formation in CEM cells; assay type: cell-based; conditions: for pEC50: read-out: HIV2 CBM; for EC50: 96 h, CEM cells, giant cell formation after 4 days, Tables I and II, read-out: EC50/μM HIV-2 CEM
Protocol: as §2
HIV1 CEM: EC50 in μM for inhibition of […] in CEM cells.
HIV2 CEM: EC50 in μM for inhibition of HIV-2 in CEM cells

[6] = test system: HIV-2; assay: Inhibition of HIV-2 in CEM.TK- cells; assay type: cell-based; conditions: read-out: HIV2 CEM. TK.
Protocol: Cells were infected with HIV-1 as previously described [Balzarini et al. AIDS (1991), 5, 21-28]. Briefly, 5×10^5 cells per milliliter were infected with HIV-1 or HV-2 at 100 CClD50 (50% cell culture infective dose) per milliliter of cell suspension. Then 100 μL of the infected cell suspension was transferred to microtiter plate wells and mixed with 100 μL of the appropriate dilutions of the test compounds. After 4 days giant cell formation was recorded microscopically in the HIV-infected cell cultures [CEM].
HIV2CEM.TK- EC50 μM for inhibition of IV-2 in CEM=cells

[7] = Toxicity to mock-infected CEM cells (CC50); assay type: cell-based; conditions: human
Protocol: as §2
(§3) CC50 CEM: CC50 in μM for toxicity to CEM cells.
(§4) CC50 CEM: CC50 μM for toxicity to CEM cells

[8] = test system: MSV; assay: Inhibition of MSV; assay type: cell-based; conditions: read-out: EC50 MSV
Protocol: EC50 MSV: EC50 μM for inhibition of MSV

[9] = test system: MSV; assay: Minimum cytotoxic concentration in MSV assay; assay type: cell-based; parameters: unit not given here; conditions: Table III
From the text: MCC MSV: minimum cytotoxic concentration in MSV essay.

[10] = test system: CEM cells; assay: Toxicity to mock-infected CEM cells (CC50); assay type: cell-based; conditions: Table III; toxicity to CEM cells; read-out: CC50 CEN
Protocol: as §2, §3, §4

[11] = Acid stability, dilute HCl pH1, simulated stomach conditions; assay type: physicochemical; conditions: 0.1N HCl pH1, 25° C.
Protocol: Compounds were tested for their stability towards acid-mediated hydrolytic decomposition employing a test designed to simulate stomach conditions. Each compound was incubated in dilute HCl of pH1 for 24 hours at 25° C. 0.3 mg of compound were added to 1 mL of 0.1N HCl at 25° C. HPLC was run immediately for time=0 and at intervals up to approximately 24 hours.

[12] = Biological stability in heparinised human plasma; conditions: heparinised human plasma, 37° C.
Protocol: Each compound was incubated in normal heparinised human plasma at 37° C. for 4 hours. […] Drug concentrations were then determined by LC/MS/MS analysis using standard methods.

[13] = Human immunodeficiency virus 1, CCRF-CEM, Table III, EC50 for inhibition of HIV1 in CEM cells
[14] = Human immunodeficiency virus 2, CCRF-CEM, Table III, EC50 for inhibition of HIV-2 in CEM cells
[15] = Human immunodeficiency virus 2, CEM-TK(-)
[16] = Table III, toxicity to CEM cells, read-out: CC50 CEN
[17] = Human immunodeficiency virus 1, CCRF-CEM
[18] = Human immunodeficiency virus 2, CCRF-CEM
[19] = mock-infected CEM cells, Tables I and II, read-out: CC50/μM CEM
[20] = Table III, EC50 for inhibition of HIV1 in CEM cells
[21] = Table III, EC50 for inhibition of HIV-2 in CEM cells
[22] = Table III, EC50 for inhibition of HIV-2 in CEM.TK- cells

Row | SMILES | pEC50 [4, 13] | pEC50 [5, 14] | CC50 [7, 16] | pEC50 ([8]; Table III, inhibition of MSV) | MCCMSV [9] | pEC50 [5, 21] | CC50 [10] | other results
1 | CCOC(=O)[C@H](C)NP(=O)(OC[C@@H]1C=C[C@H](n2cnc3c(NC4CC4)nc(N)nc32)C1)Oc1ccccc1.O=C(O)CCC(=O)O (stereo partly drawn) [Example 1, (1S,4R)-442-Amino-6-cyclopropylamino-9(purin-9-yl)-2-cyclopentene-1-methanol O-(phenylethoxy-L-alaninyl) phosphate Succinate Salt] | – | – | – | – | – | – | – | Stability (%) 0.1 N HCl ([1]; 0.1 N HCl): 66.0%; Stability (%) HPMC/Tween ([1]; HPMC/Tween): 98.8%; Stability (%) PBS ([1]; PBS): 99.8%; Solid State Stability (%) [2]: 99.6%; Solid Type [3]: crystals
2 | C[C@H](NP(=O)(OC[C@@H]1C=CC(n2cnc3c(NC4CC4)nc(N)nc32)C1)Oc1ccccc1)C(=O)OCCC(C)(C)C (stereo partly drawn) [Compound 1687, (1S,4R)-4-(2-amino6cyclopropylamino-9H-purin-9-yl)-2-cyclopentene-1-methanol O-[phenyl(3,3-dimethyl-]-butoxy-L-alaninyl)phosphate] | 6.70 | 6.70 | 10200 nM | 5.65 | >4 | – | – | pEC50 [6, 15]: 6.85
3 | Nc1nc(NC2CC2)c2ncn([C@H]3C=C[C@@H](CO)C3)c2n1 [Abacavir, (1S,4R)-4-[2-anino-6-(cyclopropylamino)-9H-purin-9-yl]-2-cyclopentene-1-methanol, reference compound] | – | – | – | – | – | – | – | EC50 [4, 17]: 1.9 µM; EC50 [5, 18]: 3 µM; CC50 at 4 days [7, 19]: 78 µM
4 | CC(C)CCCOC(=O)[C@H](C)NP(=O)(OC[C@@H]1C=CC(n2cnc3c(NC4CC4)nc(N)nc32)C1)Oc1ccccc1 (stereo partly drawn) [Compound 1721, (1S,4R)-4-(2-amino-6-cyclopropylamino-9H-purin-9-y))-2-cyclopentene-1-methanol O-[phenyl (4-methyl-1-pentyloxy-L-alaninyl)phosphate] | 7.30 | 6.85 | 12500 nM | 5.66 | >4 | – | – | –
5 | Nc1nc2c(ncn2[C@H]2C=C[C@@H](CO)C2)c(=O)[nH]1 [(1R, 4S)-9-{4-(hydroxymethyl)-2-cyclopenten-1-yl]guanine, reference compound] | – | – | – | – | – | – | – | EC50 [4, 17]: 2 µM; EC50 [5, 18]: 2.3 µM; CC50 at 4 days [7, 19]: 157 µM
6 | COC(=O)C(NP(=O)(OC[C@@H]1C=CC(n2cnc3c(NC4CC4)nc(N)nc32)C1)Oc1ccccc1)C(C)C (some centres unmarked) [Compound 1666] | 5.46 | 5.40 | 54100 nM | 4.93 | >20 | – | – | pEC50 [6, 15]: 5.46
7 | C[C@H](NP(=O)(OC[C@@H]1C=CC(n2cnc3c(NC4CC4)nc(N)nc32)C1)Oc1ccccc1)C(=O)OCC1CCCC1 (some centres unmarked) [Compound 1722] | 6.89 | 6.32 | 15200 nM | – | – | – | – | –
8 | COC(=O)[C@H](C)NP(=O)(OC[C@@H]1C=C[C@H](n2cnc3c(NC4CC4)nc(N)nc32)C1)Oc1ccc(Cl)cc1 (stereo partly drawn) [Compound 1620, (1S,4R)-4-(2-amino-6-cyclopropylamino-9H-purin-^9-yl)-2-cyclopentene-1-methanol O-[4-chlorophenyl-(methoxy-L-alaninyl)]-phosphate] | – | – | – | – | – | 7.20 | 4700 nM | pEC50 [4, 20]: 7.85; pEC50 [6, 22]: 7.89
9 | C[C@H](NP(=O)(OC[C@@H]1C=C[C@H](n2cnc3c(NC4CC4)nc(N)nc32)C1)Oc1ccccc1)C(=O)OC1CCCCC1 (stereo partly drawn) [Compound 1707, (1S,4R)-4-(2-amino-6-cyclopropylamino-9H-purin-9-yl)-2-cyclopeniene-1-methanol O-Phenyl-(c-hexyloxy-L-alaninyl)-phosphate] | – | – | – | 5.55 | >4 | 6.60 | 10200 nM | pEC50 [4, 20]: 6.48
10 | COC(=O)C(CC(C)C)NP(=O)(OC[C@@H]1C=CC(n2cnc3c(NC4CC4)nc(N)nc32)C1)Oc1ccccc1 (some centres unmarked) [Compound 1718] | 6.07 | 5.83 | 22000 nM | 5.05 | >20 | – | – | –
11 | CCC(CC)OC(=O)[C@H](C)NP(=O)(OC[C@@H]1C=CC(n2cnc3c(NC4CC4)nc(N)nc32)C1)Oc1ccccc1 (some centres unmarked) [Compound 1685] | 5.80 | 5.70 | 19700 nM | 5.00 | >20 | – | – | pEC50 [6, 15]: 4.90
12 | COC(=O)[C@H](C)NP(=O)(OC[C@@H]1C=C[C@H](n2cnc3c(N)ncnc32)O1)Oc1ccccc1 (some centres unmarked) [Compound 1001, 2′, 3′-dideoxy-2′, 3′-didehydroadenosine-5′-(phenylmethoxyalaninyl) phosphate] | – | – | – | – | – | – | – | time to disappearance in acid [11]: < 1 min; Compound left (%) ([11]; time 0 hr): 0%; Compound left (%) ([11]; time 17 hr): 0%; Half-life [12]: 4.6 h; % Remaining at 4 hours ([12]; 4 hours): 52%
13 | C[C@@H](NP(=O)(O)OC[C@@H]1C=C[C@H](n2cnc3c(NC4CC4)nc(N)nc32)C1)C(=O)O [Compound 1595, (1S,4R)-4-(2-amino-6-cyclopropylamino-9H-purin-9-yl)-2-cyclopentene-1-methanol O-(D-alaninyl)-phosphate diammonium salt] | – | – | – | – | – | 5.92 | 213000 nM | pEC50 [6, 22]: 6.10
14 | CCCOC(=O)[C@H](C)NP(=O)(OC[C@@H]1C=C[C@H](n2cnc3c(NC4CC4)nc(N)nc32)C1)Oc1ccccc1 (stereo partly drawn) [Compound 1646, (1S,4R)-4-(2-amino-6-cyclopropylamino-9H-purin-9-Sl)-2-cyclopentene-1-methanol O-Phenyl-(n-propoxy-L-alaninyl)-phosphate] | – | – | – | 5.70 | >4 | 6.92 | 9000 nM | pEC50 [4, 20]: 7.03
15 | COC(=O)[C@@H]1CCCN1P(=O)(OC[C@@H]1C=CC(n2cnc3c(NC4CC4)nc(N)nc32)C1)Oc1ccccc1 (some centres unmarked) [Compound 1719] | – | – | – | – | ≧100 | – | – | pEC50 [4, 17]: 5.40; pEC50 [5, 18]: 5.26; CC50 at 4 days [7, 16]: 19.4 µM; pEC50 [8]: 4.94
16 | COC(=O)[C@H](CC1CCCCC1)NP(=O)(OC[C@@H]1C=C[C@H](n2cnc3c(NC4CC4)nc(N)nc32)C1)Oc1ccccc1 (stereo partly drawn) [Compound 1709, (1 S,4R)-4-(2-amino-6-cyclopropylamino-9H-purin-9-yl)-2-cyclopentene-1-methanol O-Phenyl-(methoxy-3-cyclohexane-L-alaninyl)-phosphate] | – | – | – | 5.76 | >4 | 5.70 | 16000 nM | pEC50 [4, 20]: 5.92
